Results reported in patent publication US9296778B2, “3′,5′-cyclic phosphate prodrugs for HCV infection” (Idenix Pharmaceuticals, Inc., priority 2012, dated 2016).

How the values were obtained:
[1] = Stability in simulated intestinal fluid; type: in vitro ADME; conditions: 100 μM, 2 hours at 37° C., percent of the peak area at time zero
Summary of the method: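 Compounds at 100 μM final, in duplicate, kept 2 h at 37° C in USP gastric fluid (pepsin) or intestinal fluid (pancreatin). Quenched with cold acetonitrile, supernatant analysed by C-18 HPLC, UV 252 nm. Remaining compound expressed as percent of time-zero peak area.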

fresh human hepatocytes = experiment: Release of active metabolite in fresh human hepatocytes; type: in vitro ADME; conditions: 10 μM compound
Summary of the method: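 Overnight-acclimatized hepatocytes (0.8 million cells/well human, 0.5 million mouse) incubated at 37 °C with 10 μM test compound (0.1% DMSO). Sampled at 6, 24, 48 h (human) or 1, 4, 8, 12, 24 h (mouse); cells washed, extracted in cold 70% methanol, intracellular content quantified by LC-MS/MS with internal standard.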

[2] = Stability in liver subcellular fractions (microsomes); type: in vitro ADME, human; conditions: 10 μM, 1.0 mg/mL microsomal protein, NADPH, 60 min, percent unchanged test compound
Procedure: Stability of compounds were determined in subcellular fractions (microsomes) of human liver in duplicate for each matrix. Pooled liver microsomal proteins (1.0 mg/mL), suspended in incubation buffer (100 mM potassium phosphate, pH 7.4, 5 mM MgCl2, and 0.1 mM EDTA), were preincubated for 5 min at 37° C. with 10 μM of a test compound from a 10 mM stock solution in DMSO (final DMSO concentration was 0.1%); the reaction was initiated by the addition of NADPH (3 mM final concentration). At specific times (0 and 60 min), 0.1 mL samples were taken and the reaction terminated by the addition of 4 volumes of stop solution (acetonitrile with 500 ng/mL carbutamide as an internal standard). The samples were vortexed for 30 sec and then centrifuged at 16,000 g for 10 min. 100 μL of supernatants were transferred to 96 deep-well plates preloaded with 100 μL distilled water and analyzed after mixing by LC-MS/MS. The MS peak area ratio of the test compounds versus the internal standard was calculated and percent unchanged test compound over 60 minutes was calculated using this ratio.

HCV genotype 1b replicon = experiment: HCV Replicon Assay; type: cell-based; conditions: Hepatitis C virus, 72 h, Zluc cells (Huh-7-derived, HCV genotype 1b replicon, luciferase reporter), 72 hours; read-out: HCV Replicon EC50
Summary of the method: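 Zluc Huh-7 cells with HCV genotype 1b replicon and luciferase reporter treated with 5-fold dilutions (100 μM to 0.0000512 μM final) in duplicate, or at 1 and 10 μM. Luminescence read with ONE-glo; EC50 from dose-response fits, or % inhibition at the fixed concentrations.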

[3] = Stability in fresh human whole blood; type: in vitro ADME; conditions: 0.5 μM, percent unchanged test compound
Summary of the method: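 Test compound at 0.5 μM was incubated at 37 °C in fresh human K2EDTA whole blood, stored at 2–8 °C and used within 7 days, in triplicate. Samples taken at 0, 0.5, 1 and 2 h were quenched in cold acetonitrile containing internal standard and analysed by LC-MS/MS. Percent unchanged compound was derived from peak-area ratios.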

Question: For `CCOc1nc(N)nc2c1ncn2[C@@H]1O[C@@H]2COP(=O)(OCCCC(=O)OC(C)C)O[C@H]2[C@@]1(C)F` (single isomer, unassigned) [Compound 20 Diastereomer 1], which “Stability SIF” value [1] is on record?
Answer: 95%

Question: What about the “FHH TP Cmax” value (fresh human hepatocytes; fresh human hepatocytes) of the same molecule?
Answer: 88 pmol/mill cells

Question: What about the “FHH TP AUC” value (fresh human hepatocytes; fresh human hepatocytes, 6, 24 and 48 hours) of the same molecule?
Answer: 2393 pmol · hr/mill cells

Question: And the “Stability HLM (1 hr)” value [2]?
Answer: 0.35%

Question: And the EC50 (HCV genotype 1b replicon)?
Answer: < 250 nM

Question: What about the “Stability WB_Human (37° C.; 2 hr)” value [3] of the same molecule?
Answer: 98%
